Results reported in ChEMBL document CHEMBL1201862, “PubChem BioAssay data set” (2004).
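Test compounds were applied to cells in 96-well plates for 48 hours at 5 doses. GI50: concentration for 50% inhibition of growth.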 The source made the active and inactive calls. Rule as the data show it: active = GI50 up to about 1.1 µM and inactive = higher. Residues, ends and D or L forms follow the SMILES beside them. *: point of attachment. Boc = CC(C)(C)OC(=O)*; Bz = O=C(c1ccccc1)*

Legend:
Assay in all cases: NCI anticancer screen, dose series, 48 h
RXF 393 = system: RXF 393
786-0 = system: 786-0
NCI/ADR-RES = system: NCI/ADR-RES
CCRF-CEM = system: CCRF-CEM
HCC 2998 = system: HCC 2998
SK-MEL-5 = system: SK-MEL-5
COLO 205 = system: COLO 205
HT-29 = system: HT-29
HOP-92 = system: HOP-92
HCT-15 = system: HCT-15
TK-10 = system: TK-10
OVCAR-5 = system: OVCAR-5
KM12 = system: KM12
OVCAR-3 = system: OVCAR-3
SNB-75 = system: SNB-75
MDA-MB-435 = system: MDA-MB-435
Malme-3M = system: Malme-3M
NCI-H522 = system: NCI-H522
MOLT-4 = system: MOLT-4
OVCAR-8 = system: OVCAR-8

| Compound | GI50 (RXF 393) | GI50 (786-0) | GI50 (NCI/ADR-RES) | GI50 (CCRF-CEM) | GI50 (HCC 2998) | GI50 (SK-MEL-5) | GI50 (COLO 205) | GI50 (HT-29) | GI50 (HOP-92) | GI50 (HCT-15) [µM] | GI50 (TK-10) | GI50 (OVCAR-5) | GI50 (KM12) | GI50 (OVCAR-3) | GI50 (SNB-75) | GI50 (MDA-MB-435) | GI50 (Malme-3M) | GI50 (NCI-H522) | GI50 (MOLT-4) | GI50 (OVCAR-8) |
| --- | --- | --- | --- | --- | --- | --- | --- | --- | --- | --- | --- | --- | --- | --- | --- | --- | --- | --- | --- | --- |
| CCN(CC)c1ccc(/C=C/c2ccnc3ccccc23)cc1 | > 100 µM (inactive) | > 100 µM (inactive) | > 100 µM (inactive) | > 100 µM (inactive) | > 100 µM (inactive) | > 100 µM (inactive) | > 100 µM (inactive) | > 100 µM (inactive) | > 100 µM (inactive) | > 100 | > 100 µM (inactive) | > 100 µM (inactive) | > 100 µM (inactive) | > 100 µM (inactive) | > 100 µM (inactive) | > 100 µM (inactive) | > 100 µM (inactive) |  |  |  |
| NCCC1CN(C(=O)OCc2ccccc2)c2ccccc21 (configuration not stated) | 8.45 µM (inactive) | 16.1 µM (inactive) | 15.1 µM (inactive) |  | 16.6 µM (inactive) | 11.2 µM (inactive) | 16.3 µM (inactive) | 12.5 µM (inactive) | 5.45 µM (inactive) | 1.78 | 22.6 µM (inactive) | 17.1 µM (inactive) | 17.8 µM (inactive) | 16.7 µM (inactive) | 12.3 µM (inactive) | 14.8 µM (inactive) | 14.8 µM (inactive) | 14.5 µM (inactive) | 12 µM (inactive) | 8.17 µM (inactive) |
| O=S(=O)(O)c1ccc(Nc2ccnc3ccccc23)cc1 | > 100 µM (inactive) | > 100 µM (inactive) | > 100 µM (inactive) | > 100 µM (inactive) | > 100 µM (inactive) | > 100 µM (inactive) | > 100 µM (inactive) | > 100 µM (inactive) | > 100 µM (inactive) | > 100 | > 100 µM (inactive) | > 100 µM (inactive) | > 100 µM (inactive) |  | > 100 µM (inactive) | > 100 µM (inactive) | > 100 µM (inactive) | > 100 µM (inactive) | > 100 µM (inactive) | > 100 µM (inactive) |
| Cc1ccc([N+](=O)[O-])cc1S(=O)(=O)Nc1ccc(C2=NOC(c3ccccc3)C2)cc1 (configuration not stated) | 1.82 µM (inactive) | 13.8 µM (inactive) | 3.04 µM (inactive) | 9.48 µM (inactive) | 9.04 µM (inactive) | 6.47 µM (inactive) | 6.7 µM (inactive) | 6.78 µM (inactive) | 15.7 µM (inactive) | 4.11 |  | 25.4 µM (inactive) | 3.57 µM (inactive) | 3.33 µM (inactive) | 8.18 µM (inactive) | 1.5 µM (inactive) | 8.63 µM (inactive) | 3.27 µM (inactive) | 2.61 µM (inactive) | 18.3 µM (inactive) |
| CC(C)Oc1c(-c2c(OC(C)C)c(=O)c2=O)c(=O)c1=O | > 56.6 µM (inactive) | > 52.5 µM (inactive) | 4.81 µM (inactive) | > 52 µM (inactive) | > 55.3 µM (inactive) | > 41.6 µM (inactive) | > 29.7 µM (inactive) | > 23.1 µM (inactive) | > 100 µM (inactive) | > 60.5 | > 70.1 µM (inactive) | > 100 µM (inactive) | > 36.5 µM (inactive) |  | 48 µM (inactive) | > 30.2 µM (inactive) | 0.344 µM (active) | > 20.1 µM (inactive) | > 36.6 µM (inactive) | > 34.7 µM (inactive) |
| CC1(C)CC(=O)C(=CNC(=O)c2ccncc2)C(=O)C1 | > 100 µM (inactive) | > 100 µM (inactive) | > 100 µM (inactive) | > 100 µM (inactive) | > 100 µM (inactive) | > 100 µM (inactive) | > 100 µM (inactive) | > 100 µM (inactive) | > 100 µM (inactive) | > 100 | > 100 µM (inactive) | > 100 µM (inactive) | > 100 µM (inactive) | > 100 µM (inactive) | > 100 µM (inactive) | > 100 µM (inactive) |  | > 100 µM (inactive) | > 100 µM (inactive) | > 100 µM (inactive) |
| CC(C)(C)OC(=O)CN1CCNCCN(CC(=O)OC(C)(C)C)CCNCC1 | > 100 µM (inactive) | > 100 µM (inactive) | > 100 µM (inactive) | 57 µM (inactive) | > 100 µM (inactive) | 50.6 µM (inactive) | > 100 µM (inactive) | 33.3 µM (inactive) | > 100 µM (inactive) | > 100 | > 100 µM (inactive) | > 100 µM (inactive) | 98.9 µM (inactive) | > 100 µM (inactive) | > 100 µM (inactive) | 98.9 µM (inactive) |  | > 100 µM (inactive) | 64.7 µM (inactive) | > 100 µM (inactive) |
| CCOC(=O)N/N=C(\Cc1ccccc1)OCC | > 100 µM (inactive) | > 100 µM (inactive) | > 100 µM (inactive) | > 100 µM (inactive) | > 100 µM (inactive) | > 100 µM (inactive) | > 100 µM (inactive) | > 100 µM (inactive) | > 100 µM (inactive) | > 100 | > 100 µM (inactive) | > 100 µM (inactive) | > 100 µM (inactive) | > 100 µM (inactive) | > 100 µM (inactive) | > 100 µM (inactive) |  | > 100 µM (inactive) | > 100 µM (inactive) | > 100 µM (inactive) |
| COc1cccc(/C=C2/Sc3scc(-c4ccccc4)[n+]3C2=O)c1O | 14.4 µM (inactive) | 15.2 µM (inactive) | 17.7 µM (inactive) | 4.9 µM (inactive) | 16.6 µM (inactive) | 14.4 µM (inactive) | 31.8 µM (inactive) | 20.8 µM (inactive) | 15.3 µM (inactive) | 13.6 | 31 µM (inactive) | 36.7 µM (inactive) | 18.6 µM (inactive) | 26.6 µM (inactive) | 28.6 µM (inactive) | 8.65 µM (inactive) |  | 18.8 µM (inactive) | 16.1 µM (inactive) | 17.5 µM (inactive) |
| O=C(O)/C=C/C(=O)N1Cc2cc3ccccc3nc2C1 | > 100 µM (inactive) | > 100 µM (inactive) | > 100 µM (inactive) |  | > 100 µM (inactive) | > 100 µM (inactive) | > 100 µM (inactive) | > 100 µM (inactive) | > 100 µM (inactive) | > 100 | > 100 µM (inactive) | > 100 µM (inactive) | > 100 µM (inactive) | > 100 µM (inactive) | > 100 µM (inactive) | > 100 µM (inactive) | > 100 µM (inactive) | > 100 µM (inactive) | > 100 µM (inactive) | > 100 µM (inactive) |
| CC(=O)N1C(OC(C)C)CC(C)N1c1ccccc1 (configuration not stated) | > 10 µM (inactive) | > 10 µM (inactive) | > 10 µM (inactive) | > 10 µM (inactive) | > 10 µM (inactive) | > 10 µM (inactive) | > 10 µM (inactive) | > 10 µM (inactive) | > 10 µM (inactive) | > 10 | > 10 µM (inactive) | > 10 µM (inactive) |  | > 10 µM (inactive) | > 10 µM (inactive) | > 10 µM (inactive) | > 10 µM (inactive) |  | > 10 µM (inactive) | > 10 µM (inactive) |
| COC1CC(C)(N)C(O)C(C)O1 (configuration not stated) | > 100 µM (inactive) | > 100 µM (inactive) | > 100 µM (inactive) | > 100 µM (inactive) | > 100 µM (inactive) | > 100 µM (inactive) | > 100 µM (inactive) | > 100 µM (inactive) | > 100 µM (inactive) | > 100 | > 100 µM (inactive) |  | > 100 µM (inactive) | > 100 µM (inactive) | > 100 µM (inactive) | > 100 µM (inactive) | > 100 µM (inactive) | > 100 µM (inactive) | > 100 µM (inactive) | > 100 µM (inactive) |
| COC1/C=C/O[C@@]2(C)Oc3c(C)c(O)c4c(O)c(cc(O)c4c3C2=O)NC(=O)/C(C)=C\C=C\[C@H](C)C(O)[C@@H](C)[C@@H](O)[C@@H](C)[C@H](OC(C)=O)[C@@H]1C (some centres not stated) | 11.2 µM (inactive) | 15.2 µM (inactive) | 32.4 µM (inactive) | 2.06 µM (inactive) | 18.8 µM (inactive) | 32.1 µM (inactive) | 2.65 µM (inactive) | 14.9 µM (inactive) | 10.2 µM (inactive) | 18.6 | 20.1 µM (inactive) | 38.5 µM (inactive) | 27.2 µM (inactive) |  | 36.8 µM (inactive) | 19.9 µM (inactive) | 30.6 µM (inactive) | 5.3 µM (inactive) | 6.31 µM (inactive) | 18.7 µM (inactive) |
| CCCCCC(=O)N[C@@H](c1ccccc1)C(O)C(=O)OC1C[C@@]2(O)C(OC(=O)c3ccccc3)C3[C@](C)(C(=O)[C@H](O)C(=C1C)C2(C)C)C(OC1OCC(O)C(O)C1O)C[C@H]1OC[C@@]31OC(C)=O (some centres not stated) | 1.98 µM (inactive) | 4.93 µM (inactive) | > 100 µM (inactive) | 1.57 µM (inactive) | 1.6 µM (inactive) | 1.9 µM (inactive) | 0.665 µM (active) | 1.19 µM (inactive) | 24.6 µM (inactive) | > 100 | 63.2 µM (inactive) | > 20.7 µM (inactive) | 1.21 µM (inactive) | 0.706 µM (active) | 0.147 µM (active) | 0.202 µM (active) |  | 0.245 µM (active) | 2.45 µM (inactive) | 6.35 µM (inactive) |
| CC(NC(=O)C(Cc1ccc(OC(=O)c2ccccc2)cc1)NC(=O)OC(C)(C)C)C(=O)NC(Cc1ccccc1)C(=O)NCC(N)=O (configuration not stated) (Boc-Y(Bz)AFG-NH2; configuration not given here) | 20.9 µM (inactive) | 20.3 µM (inactive) | > 100 µM (inactive) | 77.8 µM (inactive) | 20.2 µM (inactive) | 26.3 µM (inactive) | 29.1 µM (inactive) | 19.1 µM (inactive) | 23.6 µM (inactive) | 53 | 20.8 µM (inactive) | 24.4 µM (inactive) | 35.8 µM (inactive) |  | 22.8 µM (inactive) | 21.7 µM (inactive) | 20.8 µM (inactive) | 17.9 µM (inactive) | 29.3 µM (inactive) | 24.7 µM (inactive) |
